Biological target: ALK2 (Homo sapiens (Human), UniProt Q04771)
Assay: ALK2 inhibition, LanthaScreen Eu Kinase Binding Assay (ThermoFisher Scientific / Life Technologies)
Conditions: read-out: Measured Ki (IC50) Value for Compounds: IC50
Procedure: Biochemical assays to measure the inhibitory effects of the compounds were performed by ThermoFisher Scientific (Life Technologies). ALK2 inhibition was tested using LanthaScreen™ Eu Kinase Binding Assay screening protocol.

Chain of ALK2 (Q04771 21-509): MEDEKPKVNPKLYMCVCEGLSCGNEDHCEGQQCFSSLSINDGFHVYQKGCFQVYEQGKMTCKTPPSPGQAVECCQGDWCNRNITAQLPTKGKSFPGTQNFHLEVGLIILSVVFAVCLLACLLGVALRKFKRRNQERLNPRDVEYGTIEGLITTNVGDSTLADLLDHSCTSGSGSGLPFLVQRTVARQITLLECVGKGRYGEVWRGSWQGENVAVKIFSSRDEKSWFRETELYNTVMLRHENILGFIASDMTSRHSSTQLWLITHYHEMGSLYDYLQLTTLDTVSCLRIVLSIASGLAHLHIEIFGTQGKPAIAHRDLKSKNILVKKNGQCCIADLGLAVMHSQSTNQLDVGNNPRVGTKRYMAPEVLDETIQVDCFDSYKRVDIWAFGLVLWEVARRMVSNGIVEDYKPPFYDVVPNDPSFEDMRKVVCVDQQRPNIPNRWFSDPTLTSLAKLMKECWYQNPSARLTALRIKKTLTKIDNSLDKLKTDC

SMILES	IC50
COc1cc(-n2cnc(Nc3cc4ccccc4c(N4CCC[C@H]4CO)n3)c2)cc(OC)c1OC [Compound 346c, (S)-(1-(3-((1-(3,4,5-trimethoxyphenyl)-1H-imidazol-4-yl)amino)isoquinolin-1-yl)pyrrolidin-2-yl)methanol]	100 to 1000 nM
COc1cc(-n2cnc(Nc3nc(N4CCC[C@H]4CO)nc4cc(C#N)ccc34)c2)cc(OC)c1OC [Compound 347a, (S)-2-(2-(hydroxymethyl)pyrrolidin-1-yl)-4-((1-(3,4,5-trimethoxyphenyl)-1H-imidazol-4-yl)amino)quinazoline-7-carbonitrile]	< 100 nM
COc1cc(-n2cnc(Nc3nc(N4CCC[C@@H]4CO)nn4c(CN5CCCCC5)ccc34)c2)cc(OC)c1OC [Compound 348a, (R)-(1-(7-(piperidin-1-ylmethyl)-4-((1-(3,4,5-trimethoxyphenyl)-1H-imidazol-4-yl)amino)pyrrolo[2,1-f][1,2,4]triazin-2-yl)pyrrolidin-2-yl)methanol]	< 100 nM
COc1cc(-n2cnc(Nc3nc(N4CCC[C@@H]4C(N)=O)nn4c(CN5CCCCC5)ccc34)c2)cc(OC)c1OC [Compound 349a, (R)-1-(7-(piperidin-1-ylmethyl)-4-((1-(3,4,5-trimethoxyphenyl)-1H-imidazol-4-yl)amino)pyrrolo[2,1-f][1,2,4]triazin-2-yl)pyrrolidine-2-carboxamide]	< 100 nM
COC(=O)c1cc(-n2cnc(Nc3nc(N4CCC[C@H]4C(N)=O)nn4cccc34)c2)cc(OC)c1OC [Compound 350d, (S)-methyl 5-(4-((2-(2-carbamoylpyrrolidin-1-yl)pyrrolo[2,1-f][1,2,4]triazin-4-yl)amino)-1H-imidazol-1-yl)-2,3-dimethoxybenzoate]	< 100 nM
COc1cc(-n2cnc(Nc3nc(N4CCC[C@H]4C(N)=O)nn4cccc34)c2)cc(C(=O)NC2CCCC2)c1O [Compound 351d, (S)-1-(4-((1-(3-(cyclopentylcarbamoyl)-4-hydroxy-5-methoxyphenyl)-1H-imidazol-4-yl)amino)pyrrolo[2,1-f][1,2,4]triazin-2-yl)pyrrolidine-2-carboxamide]	> 1000 nM
OC[C@@H]1CCCN1c1nc(Nc2nc3ccccc3o2)c2sccc2n1 [Compound 352c, (S)-(1-(4-(benzo[d]oxazol-2-ylamino)thieno[3,2-d]pyrimidin-2-yl)pyrrolidin-2-yl)methanol]	> 1000 nM
Nc1n[nH]c2ccccc12 [Compound 353a, 1H-indazol-3-amine]	> 1000 nM
OC[C@@H]1CCCN1c1nc(Nc2cc(-c3ccccc3)[nH]n2)nc2ccoc12 [Compound 354b, (S)-(1-(2-((5-phenyl-1H-pyrazol-3-yl)amino)furo[3,2-d]pyrimidin-4-yl)pyrrolidin-2-yl)methanol]	> 1000 nM
COC(=O)c1cc(-n2cnc(Nc3nc(N4CCC[C@H]4CO)c4cccn4n3)c2)cc(OC)c1OC [Compound 355a, (S)-methyl 5-(4-((4-(2-(hydroxymethyl)pyrrolidin-1-yl)pyrrolo[2,1-f][1,2,4]triazin-2-yl)amino)-1H-imidazol-1-yl)-2,3-dimethoxybenzoate]	< 100 nM
COc1cc(-n2cnc(Nc3nc(N4CCC[C@H]4CO)c4ccc(C#N)cc4n3)c2)cc(OC)c1OC [Compound 356b, (S)-4-(2-(hydroxymethyl)pyrrolidin-1-yl)-2-((1-(3,4,5-trimethoxyphenyl)-1H-imidazol-4-yl)amino)quinazoline-7-carbonitrile]	< 100 nM
COc1cc(-c2ccc(Nc3nc(N4CCC[C@H]4CO)c4ccccc4n3)nc2)cc(OC)c1OC [Compound 357d, (S)-(1-(2-((5-(3,4,5-trimethoxyphenyl)pyridin-2-yl)amino)quinazolin-4-yl)pyrrolidin-2-yl)methanol]	> 1000 nM
COc1cc(-n2cnc(Nc3nc(N4CCC[C@H]4CO)nc4cc(N5CCCCC5)ccc34)c2)cc(OC)c1OC [Compound 358a, (S)-(1-(7-(piperidin-1-yl)-4-((1-(3,4,5-trimethoxyphenyl)-1H-imidazol-4-yl)amino)quinazolin-2-yl)pyrrolidin-2-yl)methanol]	< 100 nM
COc1cc(-n2cnc(Nc3nc4c(c(N5CCC[C@H]5CO)n3)CN(C(=O)OC(C)(C)C)C4)c2)cc(OC)c1OC [Compound 359c, (S)-tert-butyl 4-(2-(hydroxymethyl)pyrrolidin-1-yl)-2-(1-(3,4,5-trimethoxyphenyl)-1H-imidazol-4-ylamino)-5H-pyrrolo[3,4-d]pyrimidine-6(7H)-carboxylate]	< 100 nM
COc1cc(-n2cnc(Nc3nc4c(c(N5CCC[C@H]5CO)n3)CNC4)c2)cc(OC)c1OC [Compound 359d, (S)-(1-(2-(1-(3,4,5-trimethoxyphenyl)-1H-imidazol-4-ylamino)-6,7-dihydro-5H-pyrrolo[3,4-d]pyrimidin-4-yl)pyrrolidin-2-yl)methanol]	< 100 nM
COc1cc(-n2cnc(Nc3nc(N4CCC[C@H]4C(N)=O)nc4c3CNC4)c2)cc(OC)c1OC [Compound 360c, (S)-1-(4-(1-(3,4,5-trimethoxyphenyl)-1H-imidazol-4-ylamino)-6,7-dihydro-5H-pyrrolo[3,4-d]pyrimidin-2-yl)pyrrolidine-2-carboxamide]	< 100 nM

SMILES	IC50
COc1cc(-n2cnc(Nc3nc(N4CCC[C@H]4CO)c4ccc(-c5cccc(N)c5)cc4n3)c2)cc(OC)c1OC [Compound 361c, (S)-(1-(7-(3-aminophenyl)-2-((1-(3,4,5-trimethoxyphenyl)-1H-imidazol-4-yl)amino)quinazolin-4-yl)pyrrolidin-2-yl)methanol]	< 100 nM
COc1cc(-n2cnc(Nc3nc(N4CCC[C@H]4CO)c4ccc(-c5cccc(F)c5)cc4n3)c2)cc(OC)c1OC [Compound 362b, (S)-(1-(7-(3-fluorophenyl)-2-((1-(3,4,5-trimethoxyphenyl)-1H-imidazol-4-yl)amino)quinazolin-4-yl)pyrrolidin-2-yl)methanol]	< 100 nM
COc1cc(-n2cnc(Nc3nc(N4CCC[C@H]4CO)c4ccc(-c5cccc(NS(C)(=O)=O)c5)cc4n3)c2)cc(OC)c1OC [Compound 363b, (S)—N-(3-(4-(2-(hydroxymethyl)pyrrolidin-1-yl)-2-((1-(3,4,5-trimethoxyphenyl)-1H-imidazol-4-yl)amino)quinazolin-7-yl)phenyl)methanesulfonamide]	< 100 nM
COc1cc(-n2cnc(Nc3nc(N4CCC[C@H]4CO)c4ccc(-c5cccc(NC(C)=O)c5)cc4n3)c2)cc(OC)c1OC [Compound 364b, (S)—N-(3-(4-(2-(hydroxymethyl)pyrrolidin-1-yl)-2-((1-(3,4,5-trimethoxyphenyl)-1H-imidazol-4-yl)amino)quinazolin-7-yl)phenyl)acetamide]	< 100 nM
COc1cc(-n2cnc(Nc3nc(N4CCC[C@H]4CO)nc4c3CN(C(=O)OC(C)(C)C)C4)c2)cc(OC)c1OC [Compound 365a, (S)-tert-butyl 2-(2-(hydroxymethyl)pyrrolidin-1-yl)-4-(1-(3,4,5-trimethoxyphenyl)-1H-imidazol-4-ylamino)-5H-pyrrolo[3,4-d]pyrimidine-6(7H)-carboxylate]	< 100 nM
COc1cc(-n2cnc(Nc3nc(N4CCC[C@H]4CO)nc4c3CNC4)c2)cc(OC)c1OC [Compound 365b, (S)-(1-(4-(1-(3,4,5-trimethoxyphenyl)-1H-imidazol-4-ylamino)-6,7-dihydro-5H-pyrrolo[3,4-d]pyrimidin-2-yl)pyrrolidin-2-yl)methanol]	< 100 nM
COc1cc(-n2cnc(Nc3nc4c(c(N5CCC[C@@H]5CO)n3)CN(C(=O)OC(C)(C)C)C4)c2)cc(OC)c1OC [Compound 366b, (R)-tert-butyl 4-(2-(hydroxymethyl)pyrrolidin-1-yl)-2-(1-(3,4,5-trimethoxyphenyl)-1H-imidazol-4-ylamino)-5H-pyrrolo[3,4-d]pyrimidine-6(7H)-carboxylate]	< 100 nM
COc1cc(-n2cnc(Nc3nc4c(c(N5CCC[C@@H]5CO)n3)CNC4)c2)cc(OC)c1OC [Compound 366c, (R)-(1-(2-(1-(3,4,5-trimethoxyphenyl)-1H-imidazol-4-ylamino)-6,7-dihydro-5H-pyrrolo[3,4-d]pyrimidin-4-yl)pyrrolidin-2-yl)methanol]	< 100 nM
OC[C@@H]1CCCN1c1cc(Cl)c2ccccc2n1 [Compound 367b, (S)-(1-(4-chloroquinolin-2-yl)pyrrolidin-2-yl)methanol]	> 1000 nM
COc1cc(-n2cnc(Nc3cc(N4CCC[C@H]4CO)c4ccccc4n3)c2)cc(OC)c1OC [Compound 368a, (S)-(1-(2-(1-(3,4,5-trimethoxyphenyl)-1H-imidazol-4-ylamino)quinolin-4-yl)pyrrolidin-2-yl)methanol]	100 to 1000 nM
COc1cc(-n2cnc(Nc3cc4ccccc4c(N4CCC[C@@H]4CO)n3)c2)cc(OC)c1OC [Compound 369b, (R)-(1-(3-(1-(3,4,5-trimethoxyphenyl)-1H-imidazol-4-ylamino)isoquinolin-1-yl)pyrrolidin-2-yl)methanol]	100 to 1000 nM
COc1cc(-c2ccc(Nc3nc(N4CCC[C@H]4CO)nc4ccccc34)nc2)cc(OC)c1OC [Compound 370b, (S)-(1-(4-((5-(3,4,5-trimethoxyphenyl)pyridin-2-yl)amino)quinazolin-2-yl)pyrrolidin-2-yl)methanol]	> 1000 nM
COc1cc(-c2ccc(Nc3nc(N4CCC[C@H]4C(N)=O)nc4ccccc34)nc2)cc(OC)c1OC [Compound 371a, (S)-1-(4-((5-(3,4,5-trimethoxyphenyl)pyridin-2-yl)amino)quinazolin-2-yl)pyrrolidine-2-carboxamide]	> 1000 nM
COc1cc(-n2cnc(Nc3nc(N4CCC[C@@H]4CO)nc4cc(C#N)ccc34)c2)cc(OC)c1OC [Compound 372a, (R)-2-(2-(hydroxymethyl)pyrrolidin-1-yl)-4-((1-(3,4,5-trimethoxyphenyl)-1H-imidazol-4-yl)amino)quinazoline-7-carbonitrile]	< 100 nM
COc1cc(-n2cnc(Nc3nc(N4CCC[C@H]4C(N)=O)nc4c3c(C)nn4C)c2)cc(OC)c1OC [Compound 373c, (S)-1-(1,3-dimethyl-4-((1-(3,4,5-trimethoxyphenyl)-1H-imidazol-4-yl)amino)-1H-pyrazolo[3,4-d]pyrimidin-6-yl)pyrrolidine-2-carboxamide]	> 1000 nM
